Data published in patent US12115158B2, “Survivin-targeting anti-tumor agents and uses thereof” (Indiana University Research and Technology Corporation, priority 2020, dated 2024).
“Also recorded” adds a separate entry of the source. Read-outs that look alike come from different tables or passages of the source.

Tests used:
[1] = test system: PC-3; conditions: MTT assay; data from the previous study [12]; cited from earlier work
[2] = test system: C4-2 cells; experiment: Methylene blue survival assay; format: cell-based; conditions: Homo sapiens, 72-hr treatment
Method: (§1) Methylene blue survival assay. Prostate cancer cells were seeded 2000-3500 per well (cell line dependent) and treated with LQZ-7-3 for 72 hours. After 72 hours, media was then removed and cells were fixed with methanol for 30 minutes and subsequently stained with 100 μL of 1% methylene blue (diluted in 10 mM borate buffer) for 1 hour. The cells were then washed 3× with 10 mM borate buffer and then allowed to air dry for 30 minutes. 100 μL of 100% ethanol:0.1 M HCl (1:1) was added to each well to dissolve the methylene blue stain and absorbance was measured via spectrometry at […]. After normalization to DMSO controls, the percent viabilities were graphed and IC50 concentrations were determined using Prism.
(§2) LQZ-7I has enhanced cytotoxicity compared to the parent compound LQZ-7. These five newly synthesized LQZ-7 analogs were first tested for their cytotoxicity against prostate cancer cell lines C4-2 and PC-3 in comparison with their parent compound LQZ-7 using methylene blue assay. […] The other compounds performed worse with higher IC50 compared with LQZ-7.

[3] = test system: PC-3 cells; experiment: Methylene blue survival assay; format: cell-based; conditions: Homo sapiens, 72-hr treatment
Method: as §1, §2

[4] = molecular target: survivin dimerization (Homo sapiens, UniProt O15392); experiment: Survivin mammalian two hybrid assay (SEAP reporter, Du145 cells); format: cell-based; conditions: 24 hours treatment
Method: (§8) Survivin mammalian two hybrid assay. The mammalian two hybrid assay was performed utilizing the ClonTech Matchmaker Mammalian Two Hybrid Assay kit [13]. Briefly, the coding region (˜400 bp) of survivin was cloned in to two different plasmids, the pM plasmid containing the GAL4-DNA Binding Domain and the pVP16 plasmid containing an activation domain. […] These two plasmids (0.45 ug/well) along with the pGSEAP reporter plasmid (0.09 ug/well) and firefly luciferase plasmid (30 ng/well) were co-transfected in to 1×10^5 Du145 cells per well in a 12 well plate. Each condition was tested in triplicate. […] SEAP was detected utilizing the Takara ClonTech SEAP Great Escape chemiluminescence assay kit 2.0 and cells were lysed and luciferase was measured to control for transfection efficiency.
Dimerization of survivin activates the expression of Secreted Embryonic Alkaline Phosphatase (SEAP) reporter gene, which can be monitored.

[5] = molecular target: CIAP1 (Homo sapiens, UniProt Q13490); experiment: IAP family member degradation assay; format: cell-based; conditions: C4-2 and PC-3 cells, Western blot
Method: (§3) Survivin mammalian two hybrid assay. […] Each condition was tested in triplicate. […] IAP family member degradation assay.
(§4) Selectivity of 7I. […] To ensure 7I is selective to survivin, we tested its effect on other members of the IAP family by taking advantage of its induction of target loss. For this purpose, we performed Western blot analysis to determine the expression level of other IAPs including XIAP, CIAP1, and CIAP2 in addition to survivin following 7I treatment of C4-2 and PC-3 cells. […] However, it had no effect on the expression of XIAP, CIAP1, and CIAP2. Thus, 7I may be selective to its intended target survivin. 7I induces survivin degradation in a proteasome-dependent manner. […] Because 7I inhibited survivin dimerization as shown above, we hypothesized that 7I will also induce survivin degradation. To test this hypothesis, we examined survivin expression level in C4-2 and PC-3 cells following 7I treatments. […] We next performed a cycloheximide-chase experiment following 7I treatment to determine the half-life of survivin. […] Thus, 7I induces survivin degradation in both cell lines.

[6] = molecular target: CIAP2 (Homo sapiens, UniProt Q13489); experiment: IAP family member degradation assay; format: cell-based; conditions: C4-2 and PC-3 cells, Western blot
Method: as §3, §4

[7] = molecular target: XIAP (Homo sapiens, UniProt P98170); experiment: IAP family member degradation assay; format: cell-based; conditions: C4-2 and PC-3 cells, Western blot
Method: as §3, §4

[8] = test system: C4-2 cells; experiment: Apoptosis assay (Annexin V flow cytometry); format: cell-based, human; conditions: 3 μM
Method: (§5) Survivin Cycloheximide Half-Life Assay. The effect of LQZ-7-3 on survivin half-life was performed as previously described. Briefly, PC-3 or C4-2 cells were pretreated with 10 μmol/L cycloheximide for 1 hour followed by incubation with or without LQZ-7-3 10 uM for different times (0-6 hours). The cells were then harvested for Western Blot analysis for survivin. Apoptosis Assay. The apoptosis assay was performed as detailed in the Anenxin V-FITC kit from BioVision. Briefly, apoptosis was induced by treatment with LQZ-7-3 and cells were collected by centrifugation. Cells were resuspended in 500 ul of 1× binding buffer and 5 ul of annexin V-FITC and 5 ul of propidium iodide (50 ug/ml) was added to the cells. The cells were incubated at room temperature for 5 minutes in the dark then subjected to quantification by flow cytometry.

[9] = test system: PC-3 cells; experiment: Apoptosis assay (Annexin V flow cytometry); format: cell-based, human; conditions: 3 μM
Method: as §5

[10] = test system: cleaved caspase 3; experiment: Western blot analysis of cleaved caspase 3; format: cell-based, human; conditions: C4-2 and PC-3 cells
Source text: To determine if 7I-induced survivin degradation occurs in proteasome, we performed a rescue experiment by pre-treating cells using proteasome inhibitors MG132 and bortezomib for 1 hr prior to 7I treatment. […] Thus, 7I likely induces survivin degradation via proteasome. 7I induces apoptosis. It has been shown previously that depleting survivin or inhibiting survivin using dominant negative forms of survivin cause spontaneous apoptosis in cancer cells (ref) and that the parent compound LQZ-7 also induces apoptosis. We next tested if 7I would induce apoptosis by inhibiting survivin. For this purpose, we first performed Western blot analysis of cleaved caspase 3 in C4-2 and PC-3 cells following 7I treatments. […] We also performed annexin V staining of C4-2 and PC-3 cells as another indicator of apoptosis following 7I treatments. […] 7I inhibits growth of PC-3 xenograft tumors by inhibiting survivin. We next determined if 7I is active in suppressing tumor growth in vivo using a PC-3 xenograft model. […] The xenograft tumors in the 7I-treatment group trended to be smaller and pale in color than the control group (FIG. 16C-D). Thus, 7I may be effective in inhibiting tumor growth with little toxicity.
Apoptosis Studies. To determine if LQZ-7F-1 also induces apoptosis of cancer cells Flow Cytometry with Annexin V staining was performed in coordination with the Flow Cytometry Core. […]

[11] = test system: PC-3 xenograft tumors; experiment: PC-3 xenograft model; format: in vivo, NSG male mice
Method: PC-3 Xenograft Model. For the in vivo efficacy study, 3×10^6 PC-3 cells in media were implanted in to the hind flanks of 6 week old NSG male mice. After the tumor volume reached approximately […] in volume, the mice were randomized in to two groups (5 mice/group). The mice were either given 200 uL vehicle (90% corn oil/10% DMSO) or LQZ-7-3 100 mg/kg vial oral gavage every other day for a total of ten treatments. Before each treatment mouse bodyweight and tumor volume by caliper was measured. At the end of the study mice were sacrificed, and tumors were extracted for western blot analysis and […] staining of survivin.

[12] = Solubility in corn oil; format: physicochemical
[13] = test system: stable C4-2 cells over expressing survivin; experiment: Methylene blue assay in survivin overexpression cells; format: cell-based; conditions: Homo sapiens; stable C4-2 clone, HA-tagged survivin; read-out: IC50, survivin over-expression
Method: as §1
(§6) Survivin overexpression decreases cellular sensitivity to 7I. To corroborate above findings and to further investigate 7I inhibition of cancer cell survival via survivin, we generated a stable C4-2 clone with overexpression of HA-tagged survivin (FIG. 13D) and tested the effect of survivin over-expression on 7I cytotoxicity. […] Thus, 7I likely works via inhibiting survivin.
(§7) LQZ-7F-1 Cytotoxicity in Survivin Overexpression Cells. To determine if survivin overexpressing cells have a decreased sensitivity to LQZ-7F-1, C4-2 survivin stable overexpressing cells were once again used in a cell cytotoxicity assay.

[14] = test system: C4-2 vector cells; experiment: Methylene blue assay in vector control cells; format: cell-based; conditions: Homo sapiens; C4-2 vector control; read-out: IC50, vector-transfect control clone
Method: as §1, §6, §7

[15] = test system: p53-large T antigen dimerization; experiment: Mammalian two hybrid assay, specificity control; conditions: same two hybrid assay
Method: as §8

[16] = molecular target: T1, survivin (Homo sapiens, UniProt O15392); experiment: Survivin level by Western blot in prostate cancer cells; conditions: C4-2 and PC-3 cells
Method: IAP family member degradation assay. For this experiment C4-2 or PC-3 cells were plated in a 10 cm dish at 1×10^6 cells per dish. 24 hours later the media was changed and cells were treated with DMO or LQZ-7-3. After 48 hours the cells were harvested, washed in PBS, and IAP family members level were evaluated using specific antibodies and Western Blotting.

[17] = molecular target: T1, survivin; experiment: Proteasome inhibitors study (rescue of survivin loss); format: cell-based; set-up: we examined survivin expression level in C4-2 and PC-3 cells following 7I treatments; endogenous in cells; host or cells: PC-3, C4-2; conditions: PC-3 and C4-2 cells
Method: Proteasome Inhibitors Study. For the proteasome inhibitor rescue experiment, PC3 and C4-2 cells were seeded in 10-cm dishes at 8×10^5 cells/dish and cultured for 48 hours followed by replacement with fresh media containing DMSO control, 7 μmol/L MG132, or 70 nmol/L bortezomib and incubation for 2 hours. LQZ-7-3 was then added to the culture to final concentrations of 10 uM respectively and incubated for additional 24 hours. The cells were then harvested used for Western blot analysis of survivin.
To determine if 7I-induced survivin degradation occurs in proteasome, we performed a rescue experiment by pre-treating cells using proteasome inhibitors MG132 and bortezomib for 1 hr prior to 7I treatment. […] Thus, 7I likely induces survivin degradation via proteasome. 7I induces apoptosis. It has been shown previously that depleting survivin or inhibiting survivin using dominant negative forms of survivin cause spontaneous apoptosis in cancer cells (ref) and that the parent compound LQZ-7 also induces apoptosis. We next tested if 7I would induce apoptosis by inhibiting survivin. For this purpose, we first performed Western blot analysis of cleaved caspase 3 in C4-2 and PC-3 cells following 7I treatments. […] We next determined if 7I is active in suppressing tumor growth in vivo using a PC-3 xenograft model. […]

[18] = read-out: IC50 against C4-2 cells
[19] = read-out: IC50 against PC-3 cells

T1 sequence (O15392 whole entry): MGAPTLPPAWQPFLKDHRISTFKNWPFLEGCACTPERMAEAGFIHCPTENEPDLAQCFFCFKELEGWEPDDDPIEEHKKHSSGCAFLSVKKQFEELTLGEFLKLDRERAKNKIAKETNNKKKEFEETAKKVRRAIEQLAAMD
Chain of survivin dimerization (O15392 whole entry): as above
Chain of CIAP1 (Q13490 whole entry): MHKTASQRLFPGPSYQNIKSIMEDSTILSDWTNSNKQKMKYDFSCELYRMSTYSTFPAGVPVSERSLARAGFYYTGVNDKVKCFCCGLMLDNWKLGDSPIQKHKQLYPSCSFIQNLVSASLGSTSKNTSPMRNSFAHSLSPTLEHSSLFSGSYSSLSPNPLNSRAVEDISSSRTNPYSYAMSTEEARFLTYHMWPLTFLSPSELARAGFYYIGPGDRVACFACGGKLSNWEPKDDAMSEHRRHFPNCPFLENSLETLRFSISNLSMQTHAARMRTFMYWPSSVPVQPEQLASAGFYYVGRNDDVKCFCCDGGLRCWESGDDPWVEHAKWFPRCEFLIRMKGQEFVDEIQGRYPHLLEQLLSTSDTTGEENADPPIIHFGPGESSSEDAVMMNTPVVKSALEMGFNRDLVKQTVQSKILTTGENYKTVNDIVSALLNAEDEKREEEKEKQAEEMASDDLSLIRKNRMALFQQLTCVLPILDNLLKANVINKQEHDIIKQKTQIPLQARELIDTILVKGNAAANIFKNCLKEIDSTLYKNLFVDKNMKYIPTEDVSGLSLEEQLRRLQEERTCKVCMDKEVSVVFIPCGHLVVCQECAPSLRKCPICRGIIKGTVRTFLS
Chain of CIAP2 (Q13489 whole entry): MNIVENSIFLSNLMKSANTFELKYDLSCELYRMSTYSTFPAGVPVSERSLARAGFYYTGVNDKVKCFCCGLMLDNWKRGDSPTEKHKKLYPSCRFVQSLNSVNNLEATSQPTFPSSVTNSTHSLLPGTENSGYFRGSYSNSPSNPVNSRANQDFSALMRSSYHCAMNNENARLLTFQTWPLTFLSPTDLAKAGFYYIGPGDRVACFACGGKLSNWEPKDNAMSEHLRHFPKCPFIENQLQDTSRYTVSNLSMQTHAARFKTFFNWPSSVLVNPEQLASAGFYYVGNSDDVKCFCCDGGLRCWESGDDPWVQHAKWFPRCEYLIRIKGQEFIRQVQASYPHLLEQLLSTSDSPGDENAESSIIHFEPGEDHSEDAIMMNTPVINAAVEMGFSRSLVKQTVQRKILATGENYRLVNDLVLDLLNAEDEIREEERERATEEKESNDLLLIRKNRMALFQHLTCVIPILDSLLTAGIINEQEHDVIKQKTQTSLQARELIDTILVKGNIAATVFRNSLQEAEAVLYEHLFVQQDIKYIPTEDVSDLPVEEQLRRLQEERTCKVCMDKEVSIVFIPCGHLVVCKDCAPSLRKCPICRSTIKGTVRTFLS
Chain of XIAP (P98170 whole entry): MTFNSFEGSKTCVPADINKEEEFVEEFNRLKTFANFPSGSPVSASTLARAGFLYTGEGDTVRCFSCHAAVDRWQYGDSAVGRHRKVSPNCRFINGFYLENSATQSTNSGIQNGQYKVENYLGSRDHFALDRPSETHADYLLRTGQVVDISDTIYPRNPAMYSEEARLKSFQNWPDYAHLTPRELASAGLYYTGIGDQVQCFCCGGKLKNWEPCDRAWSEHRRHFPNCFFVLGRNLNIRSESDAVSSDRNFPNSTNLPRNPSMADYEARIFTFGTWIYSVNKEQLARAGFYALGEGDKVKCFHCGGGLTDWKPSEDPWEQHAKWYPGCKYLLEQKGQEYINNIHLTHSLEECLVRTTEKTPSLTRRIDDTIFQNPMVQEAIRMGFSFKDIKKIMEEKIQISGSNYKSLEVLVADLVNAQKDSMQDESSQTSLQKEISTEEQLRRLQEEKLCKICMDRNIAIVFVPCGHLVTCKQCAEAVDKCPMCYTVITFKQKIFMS

In the case of `Cc1cccc(Nc2nc3nonc3nc2N/N=C/c2ccc(-c3ccc(Cl)c([N+](=O)[O-])c3)o2)c1C` [LQZ-7A], the IC50 [1] is listed as 7.2 ± 2.7 µM.
In the case of `Cc1ccc(-c2ccc(/C=N/Nc3nc4nonc4nc3Nc3cccc(Br)c3)o2)cc1Cl` [LQZ-7B], the IC50 [1] is given as 3.3 ± 0.2 µM.
In the case of `CCOC(=O)c1ccc(Nc2nc3nonc3nc2N/N=C/c2c[nH]nc2-c2ccccc2)cc1` [LQZ-7C], the IC50 [1] is listed as 3.5 µM.
In the case of `Cc1cccc(Nc2nc3nonc3nc2N/N=C/c2cc3c(cc2[N+](=O)[O-])OCO3)c1C` [LQZ-7D], the IC50 [1] is listed as 2.6 ± 0.3 µM.
`O=C(Nc1nc2ccccc2nc1Nc1ccc(F)cc1)c1ccc2c(c1)OCO2` [LQZ-7G, N-(3-((4-fluorophenyl)amino)quinoxalin-2-yl)benzo[d][1,3]dioxole-5-carboxamide] gave an IC50 ([2]; read-out: IC50 (μm) C4-2) of 14.3 µM and an IC50 ([3]; read-out: IC50 (μm) PC-3) of 20.7 µM.
With `O=C(Nc1nc2ccccc2nc1Nc1ccc(F)cc1)c1ccccc1` [LQZ-7H, N-(3-((4-fluorophenyl)amino)quinoxalin-2-yl)benzamide] the IC50 ([2]; read-out: IC50 (μm) C4-2) was 12.7 µM and the IC50 ([3]; read-out: IC50 (μm) PC-3) was 19.7 µM.
`Fc1ccc(Nc2nc3ccccc3nc2Nc2ccc(F)cc2)cc1` [LQZ-7I, N^2,N^3-bis(4-fluorophenyl)quinoxaline-2,3-diamine] gave an IC50 ([2]; read-out: IC50 (μm) C4-2) of 3.1 µM, an IC50 [2, 18] of 3.1 µM and an IC50 ([3]; read-out: IC50 (μm) PC-3) of 4.8 µM. For the same compound, the IC50 [3, 19] was 4.8 µM, the “SEAP reporter expression / survivin dimerization” value [4] was “significantly decreased; also recorded: significantly inhibited” and the “expression of CIAP1” value [5] was “no effect”. For the same compound, the “expression of CIAP2” value [6] was “no effect”, the “expression of XIAP” value [7] was “no effect” and the “apoptosis (annexin V staining)” value [8] was ~48%. The “apoptosis (annexin V staining)” value [9] was ~39%, the “cleaved caspase 3 levels” value [10] was “induced cleavage of caspase 3 in a dose dependent manner” and the body weight ([11]; 100 mg/kg oral gavage) was “lacking changes”. The “wet weight of major organs at the end of the study” value ([11]; 100 mg/kg oral gavage) was “lacking changes”, the tumor growth ([11]; 100 mg/kg oral gavage every other day, ten treatments) was “significantly suppressed” and the “survivin expression in xenograft tumors” value ([11]; Western blot and immunofluorescence staining, treatment vs control group) was “drastically reduced”. The “solubility in corn oil” value [12] was “soluble”, the IC50 [13] was ~7 µM and the IC50 [14] was ~2 µM. For the same compound, the “p53-large T antigen dimerization” value [15] was “no effect”, the “survivin expression level after treatment” value [16] was “reduced; also recorded: time-dependent survivin loss” and the “compound-induced survivin loss after pretreatment with proteasome inhibitors MG132 and bortezomib” value [17] was “significantly reversed”.
In the case of `Cc1cccc(Nc2nc3ccccc3nc2Nc2cccc(C)c2C)c1C` [LQZ-7J, N^2,N^3-bis(2,3-dimethylphenyl)quinoxaline-2,3-diamine], the IC50 ([2]; read-out: IC50 (μm) C4-2) is reported as 17.6 µM and the IC50 ([3]; read-out: IC50 (μm) PC-3) is reported as 24.8 µM.
Compound `Cc1cccc(Nc2nc3nonc3nc2N/N=C/c2ccc(-c3cccc(C(=O)O)c3)o2)c1C` [LQZ-7] has an IC50 ([2]; read-out: IC50 (μm) C4-2) of 9.1 µM, an IC50 [2, 18] of 9.1 µM and an IC50 ([3]; read-out: IC50 (μm) PC-3) of 8.1 µM. For the same compound, the IC50 [3, 19] was 8.1 µM and the “p53-large T antigen dimerization” value [15] was “no effect”.
